Laboratory results: US7538102B2, “Compounds for the treatment of Hepatitis C” (Bristol-Myers Squibb Company, priority 2007, dated 2009)
Like-named read-outs stand apart in the source and are kept apart here.

What was measured:
HCV replicon = HCV replicon FRET / luciferase assay; format: cell-based; settings: Hepatitis C virus
Method: FRET Assay Preparation. The HCV FRET screening assay was performed in 96-well cell culture plates. The FRET peptide (Anaspec, Inc.) (Taliani et al., Anal. Biochem. 1996, 240, 60-67) contains a fluorescence donor, EDANS, near one end of the peptide and an acceptor, DABCYL, near the other end. The fluorescence of the peptide is quenched by […] resonance energy transfer (RET) between the donor and the acceptor, but as the NS3 protease cleaves the peptide the products are released from RET quenching and the fluorescence of the donor becomes apparent. The assay reagent was made as follows: 5× cell Luciferase cell culture lysis reagent from Promega (#E153A) diluted to 1× with dH2O, NaCl added to 150 mM final, the FRET peptide diluted to 20 μM final from a 2 mM stock.
To prepare plates, HCV replicon cells, with or without a Renilla luciferase reporter gene, were trypsinized and plated in a 96-well plate with titrated test compounds added in columns 3 through 12; columns 1 and 2 contained a control compound (HCV control inhibitor), and the bottom row contained cells with DMSO only. The plates were then placed in a CO2 incubator at 37° C.
Assays. Subsequent to addition of the test compounds described above (FRET Assay Preparation), at various times the plate was removed and Alamar blue solution (Trek Diagnostics, #00-100) was added to measure cellular toxicity. After reading in a Cytoflour 4000 instrument (PE Biosystems), plates were rinsed with PBS and then used for FRET assay by the addition of 30 ul of the FRET peptide assay reagent described above (FRET Assay Preparation) per well. The plate was then placed into the Cytoflour 4000 instrument which had been set to 340 excite/490 emission, automatic mode for up to 20 cycles and the plate read in a kinetic mode. Typically, the signal to noise using an endpoint analysis after the reads was at least three-fold. Alternatively, after Alamar blue reading, plates were rinsed with PBS, then used for luciferase assay using the Promega Dual-Glo Luciferase Assay System or the Promega EnduRen Live Cell Substrate assay.
Compound analysis was performed by quantification of the relative HCV replicon inhibition and the relative cytotoxicity values. To calculate cytoxicity values, the average Alamar Blue fluorescence signals from the control wells were set as 100% non-toxic. The individual signals in each of the compound test wells were then divided by the average control signal and multiplied by 100% to determine […]. To calculate the HCV replicon inhibition values, an average background value was obtained from the two wells containing the highest amount of HCV control inhibitor at the end of the assay period. These numbers were similar to those obtained from naive Huh-7 cells. The background numbers were then subtracted from the average signal obtained from the control wells and this number was used as 100% activity. The individual signals in each of the compound test wells were then divided by the averaged control values after background subtraction and multiplied by 100% to determine percent activity. EC50 values were calculated as the concentration which caused a 50% reduction in FRET or luciferase activity. The two numbers generated for the compound plate, percent cytoxicity and percent activity, were used to determine compounds of interest for further analysis.

HCV NS5B = target: T1, HCV NS5B (Hepatitis C virus genotype 1b, UniProt Q9WMX2); test: HCV NS5B RdRp enzyme assay (standard or modified); format: biochemical
T1 construct: The protein was expressed with an 18 amino acid C-terminal truncation to enhance the solubility; made in house; host or cells: E. coli BL21(DE3)
T1 sequence (Q9WMX2 2420-2992): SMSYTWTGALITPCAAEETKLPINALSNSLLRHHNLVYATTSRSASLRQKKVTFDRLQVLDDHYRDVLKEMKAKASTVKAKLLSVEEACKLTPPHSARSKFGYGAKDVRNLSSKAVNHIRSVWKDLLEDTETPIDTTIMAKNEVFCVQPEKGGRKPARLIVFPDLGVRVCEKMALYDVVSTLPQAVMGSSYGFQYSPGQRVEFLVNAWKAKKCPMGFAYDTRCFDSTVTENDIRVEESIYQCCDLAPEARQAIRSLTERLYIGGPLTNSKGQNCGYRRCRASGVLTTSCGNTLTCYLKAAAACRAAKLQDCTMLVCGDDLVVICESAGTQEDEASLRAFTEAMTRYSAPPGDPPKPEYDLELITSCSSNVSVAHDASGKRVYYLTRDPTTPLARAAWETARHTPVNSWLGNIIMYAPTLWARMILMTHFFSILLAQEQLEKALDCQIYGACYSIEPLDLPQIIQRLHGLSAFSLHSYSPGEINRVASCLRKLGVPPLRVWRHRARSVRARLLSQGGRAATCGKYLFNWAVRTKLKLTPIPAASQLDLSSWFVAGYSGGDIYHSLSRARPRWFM
Method: HCV NS5B RdRp cloning, expression, and purification. The cDNA encoding the NS5B protein of HCV, genotype 1b, was cloned into the pET21a expression vector. The protein was expressed with an 18 amino acid C-terminal truncation to enhance the solubility. The E. coli competent cell line BL21(DE3) was used for expression of the protein. Cultures were grown at 37° C. for ˜4 hours until the cultures reached an optical density of 2.0 at 600 nm. The cultures were cooled to 20° C. and induced with 1 mM IPTG. Fresh ampicillin was added to a final concentration of 50 μg/ml and the cells were grown overnight at 20° C.
Cell pellets (3 L) were lysed for purification to yield 15-24 mgs of purified NS5B. The lysis buffer consisted of 20 mM Tris-HCl, pH 7.4, 500 mM NaCl, 0.5% triton X-100, 1 mM DTT, 1mM EDTA, 20% glycerol, 0.5 mg/ml lysozyme, 10 mM MgCl2, 15 ug/ml deoxyribonuclease I, and Complete TM protease inhibitor tablets (Roche). After addition of the lysis buffer, frozen cell pellets were resuspended using a tissue homogenizer. To reduce the viscosity of the sample, aliquots of the lysate were sonicated on ice using a microtip attached to a Branson sonicator. The sonicated lysate was centrifuged at 100,000×g for 1 hr at 4° C. and filtered through a 0.2 μm filter unit (Corning).
The protein was purified using two sequential chromatography steps: Heparin sepharose CL-6B and polyU sepharose 4B (Pharmacia). The chromatography buffers were identical to the lysis buffer but contained no lysozyme, deoxyribonuclease I, MgCl2 or protease inhibitor and the NaCl concentration of the buffer was adjusted according to the requirements for charging the protein onto the column. Each column was eluted with a NaCl gradient which varied in length from 5-50 column volumes depending on the column type. After the final chromatography step, the resulting purity of the enzyme is >90% based on SDS-PAGE analysis. The enzyme was aliquoted and stored at −80° C.
Standard HCV NS5B RdRp enzyme assay. HCV RdRp genotype 1b assays were run in a final volume of 60 μl in 96 well plates (Corning 3600). The assay buffer is composed of 20 mM Hepes, pH 7.5, 2.5 mM KCl, 2.5 mM MgCl2, 1 mM DTT, 1.6 U RNAse inhibitor (Promega N2515), 0.01 mg/ml BSA (Sigma B6917), and 2% glycerol. All compounds were serially diluted (3-fold) in DMSO and diluted further in water such that the final concentration of DMSO in the assay was 2%. HCV RdRp genotype 1b enzyme was used at a final concentration of 28 nM. A polyA template was used at 6 nM, and a biotinylated oligo-dT12 primer was used at 180 nM final concentration. Template was obtained commercially (Amersham 27-4110). Biotinylated primer was prepared by Sigma Genosys. 3H-UTP was used at 0.6 μCi (0.29 μM total UTP). Reactions were initiated by the addition of enzyme, incubated at 30° C. for 60 min, and stopped by adding 25 μl of 50 mM EDTA containing SPA beads (4 μg/pl, Amersham RPNQ 0007). Plates were read on a Packard Top Count NXT after >1 hr incubation at room temperature.
Modified HCV NS5B RdRp enzyme assay. A modified enzyme assay was performed essentially as described for the standard enzyme assay except for the following: The biotinylated oligo dT12 primer was precaptured on streptavidin-coated SPA beads by mixing primer and beads in assay buffer and incubating at room temperature for one hour. Unbound primer was removed after centrifugation. The primer-bound beads were resuspended in 20 mM Hepes buffer, pH 7.5 and used in the assay at final concentrations of 20 nM primer and 0.67 μg/μl beads. Order of addition in the assay: enzyme (1.75 nM) was added to diluted compound followed by the addition of a mixture of template (0.36 nM), 3H-UTP (0.6 μCi, 0.29 μM), and primer-bound beads, to initiate the reaction; concentrations given are final. Reactions were allowed to proceed for 4 hours at 30° C.
IC50 values for compounds were determined using seven different [I]. […]

[1] = HCV replicon cells, 50% reduction in FRET or luciferase activity, read-out: EC50
[2] = HCV NS5B RdRp genotype 1b, standard or modified enzyme assay not specified, read-out: IC50

Compound | EC50 (HCV replicon; [1]) [nM] | IC50 (HCV NS5B; [2]) [nM] | EC50 (HCV replicon) [nM] | IC50 (HCV NS5B) [nM]
COc1ccc2c(c1)C1CC1(C(=O)O[C@@H]1C[C@@H]3CC[C@@]1(C)C3(C)C)Cn1c-2c(C2CCCCC2)c2ccc(C(=O)NS(=O)(=O)N(C)C)cc21 (stereo partly drawn) | > 1000 | 3 to 1000 |  | 
COc1ccc2c(c1)C1CC1(C(=O)N(C)C1CCN(C)C1)Cn1c-2c(C2CCCCC2)c2ccc(C(=O)NS(=O)(=O)N(C)C)cc21 (stereo not drawn) | 3 to 1000 | 3 to 1000 |  | 
COc1ccc2c(c1)C1CC1(C(=O)N(C)C1CCN(C)CC1)Cn1c-2c(C2CCCCC2)c2ccc(C(=O)NS(=O)(=O)N(C)C)cc21 (stereo not drawn) | 3 to 1000 | 3 to 1000 |  | 
COc1ccc2c(c1)C1CC1(C(=O)N(C)C(CN(C)C)c1ccccc1)Cn1c-2c(C2CCCCC2)c2ccc(C(=O)NS(=O)(=O)N(C)C)cc21 (stereo not drawn) | 3 to 1000 | 3 to 1000 |  | 
COc1ccc2c(c1)C1CC1(C(=O)N1CCCC1CN1CCCC1)Cn1c-2c(C2CCCCC2)c2ccc(C(=O)NS(=O)(=O)N(C)C)cc21 (stereo not drawn) | 3 to 1000 | 3 to 1000 |  | 
COc1ccc2c(c1)C1CC1(C(=O)N(C)CCN1CCCC1)Cn1c-2c(C2CCCCC2)c2ccc(C(=O)NS(=O)(=O)N(C)C)cc21 (stereo not drawn) | 3 to 1000 | 3 to 1000 |  | 
COc1ccc2c(c1)C1CC1(C(=O)N(C)CC1CCCN1C)Cn1c-2c(C2CCCCC2)c2ccc(C(=O)NS(=O)(=O)N(C)C)cc21 (stereo not drawn) | 3 to 1000 | 3 to 1000 |  | 
COc1ccc2c(c1)C1CC1(C(=O)N(C)CC1CCCCN1C)Cn1c-2c(C2CCCCC2)c2ccc(C(=O)NS(=O)(=O)N(C)C)cc21 (stereo not drawn) | 3 to 1000 | 3 to 1000 |  | 
COc1ccc2c(c1)C1CC1(C(=O)N(C)[C@@H]1CCCC[C@H]1N(C)C)Cn1c-2c(C2CCCCC2)c2ccc(C(=O)NS(=O)(=O)N(C)C)cc21 (stereo partly drawn) | 3 to 1000 | 3 to 1000 |  | 
COc1ccc2c(c1)C1CC1(C(=O)N(C1CC1)[C@@H]1CCCC[C@H]1N(C)C)Cn1c-2c(C2CCCCC2)c2ccc(C(=O)NS(=O)(=O)N(C)C)cc21 (stereo partly drawn) | 3 to 1000 | 3 to 1000 |  | 
COc1ccc2c(c1)C1CC1(C(=O)N[C@@H]1CCC[C@H]1N(C)C)Cn1c-2c(C2CCCCC2)c2ccc(C(=O)NS(=O)(=O)N(C)C)cc21 (stereo partly drawn) | 3 to 1000 | 3 to 1000 |  | 
COc1ccc2c(c1)C1CC1(C(=O)N(C)CC1(C3CCCCC3)CCCCC1)Cn1c-2c(C2CCCCC2)c2ccc(C(=O)NS(=O)(=O)N(C)C)cc21 (stereo not drawn) | 3 to 1000 | 3 to 1000 |  | 
COc1ccc2c(c1)C1CC1(C(=O)N1CCNC(c3ccccc3)C1)Cn1c-2c(C2CCCCC2)c2ccc(C(=O)NS(=O)(=O)N(C)C)cc21 (stereo not drawn) | 3 to 1000 | 3 to 1000 |  | 
COc1ccc2c(c1)C1CC1(C(=O)N1CCNC(c3cccc(Cl)c3)C1)Cn1c-2c(C2CCCCC2)c2ccc(C(=O)NS(=O)(=O)N(C)C)cc21 (stereo not drawn) | 3 to 1000 | 3 to 1000 |  | 
COc1ccc2c(c1)C1CC1(C(=O)N1CCCN(C(=O)OC(C)(C)C)CC1)Cn1c-2c(C2CCCCC2)c2ccc(C(=O)NS(=O)(=O)C3CC3)cc21 (stereo not drawn) |  | 3 to 1000 |  | 
COc1ccc2c(c1)C1CC1(C(=O)N1CCCN(CCCN3CCOCC3)CC1)Cn1c-2c(C2CCCCC2)c2ccc(C(=O)NS(=O)(=O)C(C)C)cc21 (stereo not drawn) |  | 3 to 1000 |  | 
COc1ccc2c(c1)C=C(C(=O)N1CCCN(CCCN3CCOCC3)CC1)Cn1c-2c(C2CCCCC2)c2ccc(C(=O)NS(=O)(=O)C3CC3)cc21 |  | 3 to 1000 |  | 
COc1ccc2c(c1)C1CC1(C(=O)NC1CC3CCC(C1)N3C)Cn1c-2c(C2CCCCC2)c2ccc(C(=O)NS(=O)(=O)N(C)C)cc21 (stereo not drawn) |  |  | 3 to 1000 | 3 to 1000
COc1ccc2c(c1)C1CC1(C(=O)N[C@@H]1CC3CCN1CC3)Cn1c-2c(C2CCCCC2)c2ccc(C(=O)NS(=O)(=O)N(C)C)cc21 (stereo partly drawn) |  |  | 3 to 1000 | 3 to 1000
COc1ccc2c(c1)C1CC1(C(=O)N(C)C1CC3CCC1N3C)Cn1c-2c(C2CCCCC2)c2ccc(C(=O)NS(=O)(=O)N(C)C)cc21 (stereo not drawn) |  |  | 3 to 1000 | 3 to 1000
COc1ccc2c(c1)C1CC1(C(=O)N1CCN(CC(=O)N3CCCC3)CC1)Cn1c-2c(C2CCCCC2)c2ccc(C(=O)NS(=O)(=O)C(C)C)cc21 (stereo not drawn) | 3 to 1000 | 3 to 1000 |  | 
COc1ccc2c(c1)C1CC1(C(=O)N1CCN(Cc3ccccc3)C[C@H]1C)Cn1c-2c(C2CCCCC2)c2ccc(C(=O)NS(C)(=O)=O)cc21 (stereo partly drawn) | 3 to 1000 | 3 to 1000 |  | 
COc1ccc2c(c1)C1CC1(C(=O)N1CCN(C(=O)OC(C)(C)C)C[C@H]1c1ccccc1)Cn1c-2c(C2CCCCC2)c2ccc(C(=O)NS(C)(=O)=O)cc21 (stereo partly drawn) | 3 to 1000 | 3 to 1000 |  | 
COc1ccc2c(c1)C1CC1(C(=O)N1CCN(C)CC1c1ccccc1)Cn1c-2c(C2CCCCC2)c2ccc(C(=O)NS(=O)(=O)N(C)C)cc21 (stereo not drawn) [drawing 46] |  | 3 to 1000 |  | 
COc1ccc2c(c1)C1CC1(C(=O)N1CCN(C)CC1c1ccccc1)Cn1c-2c(C2CCCCC2)c2ccc(C(=O)NS(=O)(=O)C(C)C)cc21 (stereo not drawn) [drawing 56] |  | 3 to 1000 |  | 
COc1ccc2c(c1)C1CC1(C(=O)N1CCN(C)CC1c1ccccc1)Cn1c-2c(C2CCCCC2)c2ccc(C(=O)NS(=O)(=O)N(C)C)cc21 (stereo not drawn) [drawing 64] |  | 3 to 1000 |  | 
COc1ccc2c(c1)C1CC1(C(=O)N1CCN(C)CC1c1ccccc1)Cn1c-2c(C2CCCCC2)c2ccc(C(=O)NS(=O)(=O)N(C)C)cc21 (stereo not drawn) [drawing 65] |  | 3 to 1000 |  | 
COc1ccc2c(c1)C1C[C@]1(C(=O)N1CCN(C)CC1c1ccccc1)Cn1c-2c(C2CCCCC2)c2ccc(C(=O)NS(=O)(=O)C(C)C)cc21 (stereo partly drawn) [drawing 79] |  | 3 to 1000 |  | 
